Results on three compounds are retold here after publication PMC9409043, “Serotonin 5-HT6 Receptor Ligands and Butyrylcholinesterase Inhibitors Displaying Antioxidant Activity—Design, Synthesis and Biological Evaluation of Multifunctional Agents against Alzheimer’s Disease” (International Journal of Molecular Sciences, 2022).

Data set [1] concerns HepG2 (human hepatocellular carcinoma) cells. Briefly: Hepatotoxicity, MTS cell viability test. In kind it is cell-based. The note with it: 72 h. How it is done: Hepatotoxicity. To further investigate the safety of the compounds, we determined their hepatotoxicity. We used the MTS test that determines cell viability to assess the effect of compounds 14, 16 and 19 on HepG2 (human hepatocellular carcinoma) cells. The compounds were tested at 1, 10, 50 and 100 μM, and cytostatic drug doxorubicin (DX) at 1 μM was used as a reference compound. […]. The HepG2 (ATCC® HB-8065™) cell line was cultivated according to the procedure provided by ATCC. The tested compounds were incubated with cells for 72 h in the following concentrations: 1, 10, 50 and 100 μM. To evaluate the cells’ viability, CellTiter 96® AQueous Non-Radioactive Cell Proliferation Assay (MTS, Promega®, Madison, WI, USA) was performed. The antiproliferative drug doxorubicin was used as a positive control at the concentration of 1 µM. For determination of the IC50 value for compound 14, additional study was performed. The tested compound was incubated with the HepG2 cells for 72 h in the following nine concentrations: 0.001, 0.01, 0.1, 1, 5, 10, 25, 50 and 100 μM. The cells’ viability was estimated by MTS test. IC50 was calculated by Graph Pad Prism 8.0.1 software.
On the technique in general: Tetrazolium assays rely on reduction of a dye to a coloured formazan, in cell work by metabolically active cells.

A short description of data set [2]: Metabolic stability in human liver microsomes. In kind it is in vitro ADME. The protocol: Metabolic stability. […] For detailed results, including UPLC chromatograms and MS spectra, see the Supporting information (Figures S1–S16).
The metabolic stability was evaluated by incubation of compounds with human liver microsomes (Sigma-Aldrich, St. Louis, MO, USA) in 10 mM Tris–HCl buffer (pH 7.4) at 37 °C for 120 min in the presence of NADPH Regeneration System (Promega, Madison, WI, USA). The percentage of the remaining substrate and the most probable metabolic pathways were estimated by UPLC-MS analyses of the reaction mixtures.
A general note: Microsomes from liver hold many membrane-bound enzymes, among them those of drug oxidation.

In the next data set the target is T1, CYP2D6 (Homo sapiens, UniProt P10635).
T1 construct: purchased Promega, Madison, WI, USA
T1 sequence (P10635 whole entry): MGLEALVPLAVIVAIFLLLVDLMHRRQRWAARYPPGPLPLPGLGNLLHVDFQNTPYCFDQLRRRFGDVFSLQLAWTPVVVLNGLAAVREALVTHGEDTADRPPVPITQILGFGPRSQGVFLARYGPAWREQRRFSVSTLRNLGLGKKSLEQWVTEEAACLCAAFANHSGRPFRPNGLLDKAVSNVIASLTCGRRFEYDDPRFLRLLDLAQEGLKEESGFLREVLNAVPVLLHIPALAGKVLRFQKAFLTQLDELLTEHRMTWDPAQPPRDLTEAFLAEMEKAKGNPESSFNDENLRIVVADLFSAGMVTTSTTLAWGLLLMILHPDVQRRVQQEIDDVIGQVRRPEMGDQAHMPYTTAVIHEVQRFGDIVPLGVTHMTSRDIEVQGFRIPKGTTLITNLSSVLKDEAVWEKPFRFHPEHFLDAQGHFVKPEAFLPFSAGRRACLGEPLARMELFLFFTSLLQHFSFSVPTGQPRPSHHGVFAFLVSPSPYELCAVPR
Briefly: CYP P450-Glo luminescence assay, CYP2D6. In kind it is in vitro ADME. As to conditions: human, CYP2D6 enzyme in the luminescent P450-Glo assay (Promega); 0.1 µM. From the text: Influence on CYP3A4 and CYP2D6 activity. Possible drug–drug interactions (DDIs) are an important issue for elderly patients, who are usually on multiple medications. They may result, among other things, from the interactions (inhibition or activation) of the cytochrome P450 isoenzymes, especially CYP3A4 and CYP2D6, which play the most significant role in drugs’ biotransformation. Therefore, to predict the potential influence of the studied compounds (14, 16 and 19) on the metabolism of other drugs, we used the CYP450 inhibition luminescence assay (Promega). […]. […] […]. […] […].
The influence on CYP 3A4 and 2D6 activity was estimated by respective luminescent CYP P450-Glo™ assay (Promega®, Madison, WI, USA). The compounds were tested in the concentration range of 0.1–25 µM. The results were compared to the respective reference CYP inhibitors: ketoconazole and quinidine.

Data set [3] in a line: Metabolic stability in mouse liver microsomes. In kind it is in vitro ADME. The note with it: 2 h, pH 7.4.
Data set [4] in a line: Metal-chelating properties, spectrophotometric. The note with it: 50 µM ligand and Fe^2+, 250–400 nm. From the text: Metal-chelating properties. The homeostasis of metal ions in the brain is one of the important factors that determine its proper functioning. Disturbed levels of metal ions can lead to overproduction and aggregation of amyloid beta tau proteins and an increase in oxygen radicals production, leading to a degeneration of neurons observed in AD [55]. Additionally, it was observed that iron accumulation in microglia triggers a cascade of events leading to the production of a more sustained inflammatory response with increased reactive oxygen species (ROS) production and increased glycolysis. Adjusting the balance of metal ions by supplementing or chelating may be beneficial in alleviating AD pathology. Thus, we tested the metal-chelating properties of compounds 12–19 against 10 metal ions, recognised as potentially involved in AD. The formation of ligand–ion (Al^3+, Ca^2+, Co^2+, Cu^2+, Fe^2+, Fe^3+, Mg^2+, Ni^2+, Pb^2+ or Zn^2+) complexes was measured spectrophotometrically (250–400 nm with 4 nm interval) at 50 µM concentrations of both, according to the protocol reported previously. Metal-chelating ability was calculated as a shift of absorbance between the absorbance of the ligand–ion mixture and the sum of the absorbance of the ligand and ion separately. […]

A word on the IC50: it is the concentration that gives 50% inhibition. The term inhibition denotes the relative decrease from the control value, in per cent. Low readings indicate a response near the control, high ones a response far below the control. In data set [1] (Homo sapiens, HepG2, MTS test), `O=S(=O)(c1ccccc1)n1ccc2c(OCCNCCCC3CCN(Cc4ccccc4)CC3)cccc21` [Compound 14, 3-(1-Benzylpiperidin-4-yl)-N-(2-((1-(phenylsulfonyl)-1H-indol-4-yl)oxy)ethyl)propan-1-amine] came in with an IC50 of 2160 nM. Besides, the “fold HepG2 IC50 over Ki for 5-HT6R and IC50 for hBuChE (safety margin)” value in data set [1] (human) is “at least 98 fold”. In addition, the main metabolic pathway entry in data set [2] is listed as “oxidative deamination”. In addition, the “HLMs % Left” value in data set [2] (human, 2 h, pH 7.4) is 84.69%. At CYP2D6, the inhibition at 0.1 µM is about 20%. Further, the “MLMs % Left” value in data set [3] amounted to 75.54%.
With `O=S(=O)(c1ccccc1)N1CCc2c(OCCNCC3CCN(Cc4ccccc4)CC3)cccc21` [Compound 15, N-((1-Benzylpiperidin-4-yl)methyl)-2-((1-(phenylsulfonyl)indolin-4-yl)oxy)ethan-1-amine], the “Fe^2+ chelating properties (shift of absorbance)” value in data set [4] is “Fe^2+ ions chelators”.
For the compound `O=c1[nH]c2c(OCCNCCC3CCN(Cc4ccccc4)CC3)cccc2n1Cc1ccccc1` [Compound 18, 1-Benzyl-4-(2-((2-(1-benzylpiperidin-4-yl)ethyl)amino)ethoxy)-1,3-dihydro-2H-benzo[d]imidazol-2-one], in data set [4], the “Fe^2+ chelating properties (shift of absorbance)” value is “Fe^2+ ions chelators”.
